Values joined by “and” are separate entries in the source; they are usually repeats but may differ in a detail not shown here. Identical values can stand only once. Active and inactive are the calls of the source.
Legend:
[1] = target: T1, RNA-binding protein pos-1 (Caenorhabditis elegans, UniProt G5EF15); assay: disruptors of C. elegans POS-1 RNA interaction – biochemical, fluorescence polarization, dose response (AID 1964);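 note: purified POS-1 fused to maltose binding protein made in E. coli; potency of compounds blocking POS-1 binding to fluorescent RNA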
T1 sequence (G5EF15 whole entry): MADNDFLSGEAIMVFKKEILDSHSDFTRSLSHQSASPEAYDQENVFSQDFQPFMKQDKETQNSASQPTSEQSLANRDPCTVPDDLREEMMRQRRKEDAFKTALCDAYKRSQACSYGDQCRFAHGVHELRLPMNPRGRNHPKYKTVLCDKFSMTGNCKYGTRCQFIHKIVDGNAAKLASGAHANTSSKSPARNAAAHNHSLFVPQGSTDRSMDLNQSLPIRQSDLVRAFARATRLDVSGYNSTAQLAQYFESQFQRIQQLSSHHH

[2] = target: T2, Zinc finger protein mex-5 (Caenorhabditis elegans, UniProt Q9XUB2); assay: potency of MEX-5 RNA-binding blockers – biochemical, C. elegans, fluorescence polarization, dose response (AID 1960)
T2 sequence (Q9XUB2 whole entry): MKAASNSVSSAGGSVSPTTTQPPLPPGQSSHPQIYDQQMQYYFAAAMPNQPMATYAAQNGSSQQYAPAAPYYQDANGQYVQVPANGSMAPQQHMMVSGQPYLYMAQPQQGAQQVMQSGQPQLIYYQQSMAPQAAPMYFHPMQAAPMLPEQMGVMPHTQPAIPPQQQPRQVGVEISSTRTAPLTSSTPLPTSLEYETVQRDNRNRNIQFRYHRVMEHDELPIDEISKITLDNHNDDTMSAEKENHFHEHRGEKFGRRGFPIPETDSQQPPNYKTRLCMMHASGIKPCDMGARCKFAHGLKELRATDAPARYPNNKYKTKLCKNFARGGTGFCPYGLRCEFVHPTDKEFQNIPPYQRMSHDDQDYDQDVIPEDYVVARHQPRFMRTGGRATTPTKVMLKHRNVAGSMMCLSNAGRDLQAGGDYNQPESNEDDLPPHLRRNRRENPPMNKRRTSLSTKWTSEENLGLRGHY

Aminopeptidase N = target: T3, Aminopeptidase N (Plasmodium falciparum FcB1/Columbia, UniProt O96935); assay: malaria alanyl aminopeptidase activity blockers – biochemical, fluorogenic H-Leu-NHMec substrate, 1536-well (AID 1445); set-up: species or system Plasmodium falciparum 3D7, 3D7
T3 sequence (O96935 whole entry): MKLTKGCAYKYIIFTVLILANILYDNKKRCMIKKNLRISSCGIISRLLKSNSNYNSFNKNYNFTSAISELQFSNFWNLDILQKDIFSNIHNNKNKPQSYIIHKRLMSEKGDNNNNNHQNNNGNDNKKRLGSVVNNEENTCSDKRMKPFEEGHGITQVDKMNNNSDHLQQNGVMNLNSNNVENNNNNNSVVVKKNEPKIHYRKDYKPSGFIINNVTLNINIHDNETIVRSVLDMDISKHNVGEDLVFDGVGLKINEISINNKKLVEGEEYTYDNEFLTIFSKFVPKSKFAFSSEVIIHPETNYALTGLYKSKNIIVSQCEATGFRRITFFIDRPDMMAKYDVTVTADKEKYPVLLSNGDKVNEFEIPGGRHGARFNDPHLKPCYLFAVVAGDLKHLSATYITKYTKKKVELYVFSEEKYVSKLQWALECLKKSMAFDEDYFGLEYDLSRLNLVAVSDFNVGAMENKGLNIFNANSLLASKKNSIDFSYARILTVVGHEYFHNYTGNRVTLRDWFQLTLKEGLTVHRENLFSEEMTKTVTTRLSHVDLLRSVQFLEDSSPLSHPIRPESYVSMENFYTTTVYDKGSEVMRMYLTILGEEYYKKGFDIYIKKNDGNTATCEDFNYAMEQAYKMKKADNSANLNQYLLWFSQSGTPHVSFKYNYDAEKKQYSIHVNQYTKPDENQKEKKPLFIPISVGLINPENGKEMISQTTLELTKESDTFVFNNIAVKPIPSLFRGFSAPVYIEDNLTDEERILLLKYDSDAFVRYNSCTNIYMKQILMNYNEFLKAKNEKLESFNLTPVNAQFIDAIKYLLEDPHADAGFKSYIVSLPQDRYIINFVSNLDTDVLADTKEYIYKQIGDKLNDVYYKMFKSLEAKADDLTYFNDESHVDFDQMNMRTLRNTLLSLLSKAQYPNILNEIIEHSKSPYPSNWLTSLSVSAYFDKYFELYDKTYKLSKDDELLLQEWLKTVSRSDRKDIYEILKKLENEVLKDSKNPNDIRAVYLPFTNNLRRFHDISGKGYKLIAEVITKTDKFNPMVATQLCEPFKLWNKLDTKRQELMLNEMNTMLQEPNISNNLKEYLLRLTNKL

Cytochrome P450 2C9 = Cytochrome P450 2C9 (Homo sapiens, UniProt P11712)
[3] = NIH-3T3 fibroblast cytotoxicity, dose response, cytotoxicity control, cell-based, fluorescence, Alamar Blue, secondary assay (AID 2327); format: functional;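 note: NIH-3T3 mouse fibroblasts cultured with fluconazole at 8 µg/mL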
Leucine aminopeptidase = target: T4, Leucine aminopeptidase (Plasmodium falciparum 3D7, UniProt Q8IL11); assay: P. falciparum M17LAP inhibitors, primary screen, biochemical, fluorogenic H-Leu-NHMec substrate, 1536-well (AID 1619); format: functional
T4 sequence (Q8IL11 whole entry): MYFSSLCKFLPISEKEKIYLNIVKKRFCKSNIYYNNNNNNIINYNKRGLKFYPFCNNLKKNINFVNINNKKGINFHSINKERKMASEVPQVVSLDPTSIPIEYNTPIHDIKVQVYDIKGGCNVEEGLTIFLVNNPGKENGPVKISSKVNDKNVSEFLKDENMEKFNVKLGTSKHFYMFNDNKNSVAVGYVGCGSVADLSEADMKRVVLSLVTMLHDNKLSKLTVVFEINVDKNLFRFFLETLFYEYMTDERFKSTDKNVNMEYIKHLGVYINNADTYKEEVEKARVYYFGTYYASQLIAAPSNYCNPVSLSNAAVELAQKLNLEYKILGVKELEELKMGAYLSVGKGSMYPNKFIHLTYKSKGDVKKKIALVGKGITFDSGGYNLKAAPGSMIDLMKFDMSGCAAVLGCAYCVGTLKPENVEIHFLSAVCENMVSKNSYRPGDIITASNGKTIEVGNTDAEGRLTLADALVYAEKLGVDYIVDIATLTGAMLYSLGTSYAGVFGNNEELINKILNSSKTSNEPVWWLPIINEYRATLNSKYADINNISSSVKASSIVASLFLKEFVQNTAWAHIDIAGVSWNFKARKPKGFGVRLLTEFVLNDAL

[4] = fluconazole-exposed Candida albicans growth modulators – fluorescence, retest, confirmation (AID 2467); format: functional, cell-based
Genome polyprotein = Genome polyprotein (dengue virus type 2, UniProt P29990); assay: flavivirus cap methylation enzyme inhibition – biochemical, confirmation dose response, primary screen (AID 588689); format: functional
[5] = viability of uninfected HEp-2 cells – cell-based, HTS, cytotoxicity control for RSV inhibitor project, dose response (AID 2410); format: functional; conditions: human respiratory syncytial virus
cells [6] = assay: cells
[7] = Trypanosoma cruzi growth suppression in host cells – NIH3T3 host cells, beta-gal luminescence, confirmation (AID 2044); format: functional, cell-based;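 note: intracellular parasites grown in NIH/3T3 mouse fibroblasts as host cells; luminescent beta-galactosidase reporter signal from transgenic T. cruzi replicating inside host cells; inhibitors lower the luminescence signal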
[8] = NIH3T3 cell viability loss – ATP luminescence, mouse fibroblasts, counter-screen, dose response (AID 2010); format: functional, cell-based;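 note: cells exposed to compound for about 90 hours before reading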
[9] = THP-1 cell cytotoxicity, dose response, cytotoxicity control for non-replicating M. tuberculosis project (AID 489025); format: functional
[10] = Vero E6 cell cytotoxicity, dose response, cytotoxicity control for non-replicating M. tuberculosis project, secondary assay (AID 492998); format: functional, VeroE6; conditions: Vero C1008
cells [11] = format: functional
INS1 = assay: INS-1E survival protection against cytokine death – cell-based, luminescence, retest, dose response (AID 449756); format: functional; conditions: Rattus norvegicus;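 note: cell death triggered by IL-1 beta plus TNF-alpha plus IFN-gamma mixture; protective hits raise ATP signal compared with cytokine alone wells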
Cytochrome P450 3A4 = Cytochrome P450 3A4 (Homo sapiens, UniProt P08684); conditions: Potency;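 note: confirmatory qHTS run detecting inhibitors and substrates of CYP3A4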
Chain of Cytochrome P450 3A4 (P08684 whole entry): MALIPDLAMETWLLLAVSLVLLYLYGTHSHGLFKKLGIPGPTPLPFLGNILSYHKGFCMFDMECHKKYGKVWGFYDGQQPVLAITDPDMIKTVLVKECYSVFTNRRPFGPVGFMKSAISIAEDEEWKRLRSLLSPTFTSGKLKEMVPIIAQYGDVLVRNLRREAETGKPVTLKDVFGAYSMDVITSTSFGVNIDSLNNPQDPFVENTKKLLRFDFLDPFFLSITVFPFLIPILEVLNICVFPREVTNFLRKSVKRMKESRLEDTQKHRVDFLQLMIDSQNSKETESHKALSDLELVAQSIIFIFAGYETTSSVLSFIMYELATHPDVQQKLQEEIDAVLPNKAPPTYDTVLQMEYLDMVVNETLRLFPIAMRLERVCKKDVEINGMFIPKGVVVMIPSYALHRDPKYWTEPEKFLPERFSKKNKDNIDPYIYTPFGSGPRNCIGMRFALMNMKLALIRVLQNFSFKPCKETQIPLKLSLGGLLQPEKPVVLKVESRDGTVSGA

Chain of Cytochrome P450 2C9 (P11712 whole entry): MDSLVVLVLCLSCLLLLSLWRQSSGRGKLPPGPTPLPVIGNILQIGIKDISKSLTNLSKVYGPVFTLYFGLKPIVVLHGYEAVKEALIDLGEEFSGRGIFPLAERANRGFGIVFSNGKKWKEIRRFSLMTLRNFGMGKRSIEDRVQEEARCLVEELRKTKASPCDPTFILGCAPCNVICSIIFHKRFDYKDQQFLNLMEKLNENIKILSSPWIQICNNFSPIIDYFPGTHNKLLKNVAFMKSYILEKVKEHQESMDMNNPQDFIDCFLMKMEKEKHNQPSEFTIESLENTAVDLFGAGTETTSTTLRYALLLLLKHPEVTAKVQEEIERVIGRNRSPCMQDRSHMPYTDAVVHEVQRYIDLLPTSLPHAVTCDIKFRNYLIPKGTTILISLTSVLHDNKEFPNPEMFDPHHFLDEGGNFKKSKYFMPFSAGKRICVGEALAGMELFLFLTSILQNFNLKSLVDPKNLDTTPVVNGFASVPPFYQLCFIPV
Chain of Genome polyprotein (P29990 2492-3391 limits assumed): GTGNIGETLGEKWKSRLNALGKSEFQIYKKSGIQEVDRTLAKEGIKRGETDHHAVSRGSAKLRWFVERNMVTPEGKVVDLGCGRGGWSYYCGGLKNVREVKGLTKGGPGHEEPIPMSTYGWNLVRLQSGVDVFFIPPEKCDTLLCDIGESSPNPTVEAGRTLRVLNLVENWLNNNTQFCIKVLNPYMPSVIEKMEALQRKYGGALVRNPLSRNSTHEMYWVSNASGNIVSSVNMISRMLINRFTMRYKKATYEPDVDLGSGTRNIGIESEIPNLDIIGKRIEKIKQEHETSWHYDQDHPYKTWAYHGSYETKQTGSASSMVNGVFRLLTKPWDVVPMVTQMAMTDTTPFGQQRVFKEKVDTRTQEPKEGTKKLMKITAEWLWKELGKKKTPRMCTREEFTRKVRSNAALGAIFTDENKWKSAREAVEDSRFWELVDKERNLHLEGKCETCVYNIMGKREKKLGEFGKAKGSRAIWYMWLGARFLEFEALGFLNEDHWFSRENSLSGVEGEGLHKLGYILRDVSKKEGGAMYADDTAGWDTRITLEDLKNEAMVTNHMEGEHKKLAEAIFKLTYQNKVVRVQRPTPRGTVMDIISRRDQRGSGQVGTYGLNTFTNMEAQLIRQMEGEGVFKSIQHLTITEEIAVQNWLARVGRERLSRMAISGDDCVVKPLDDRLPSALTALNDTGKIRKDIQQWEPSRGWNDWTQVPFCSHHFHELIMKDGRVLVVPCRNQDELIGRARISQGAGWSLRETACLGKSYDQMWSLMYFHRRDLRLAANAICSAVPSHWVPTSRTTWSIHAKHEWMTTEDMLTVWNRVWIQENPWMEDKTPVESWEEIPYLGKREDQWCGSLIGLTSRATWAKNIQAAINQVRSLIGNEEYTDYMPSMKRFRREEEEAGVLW

In the case of `O=C1NC(=O)N(c2ccc(Cl)cc2)C(=O)/C1=C/NCCN1CCCCC1`, the EC50 [1] is reported as > 300 µM (not active) and the EC50 [2] is reported as > 300 µM (not active).
With `O=C(COc1ccccc1/C=C1\SC(=O)NC1=O)Nc1ccc(F)cc1` the IC50 (Aminopeptidase N) was 27.5 µM (active).
For `Cn1cccc1C(=O)C(=O)Nc1cccc(Cl)c1Cl`, the AC50 (Cytochrome P450 2C9) was “inconclusive”.
With `O=C(O)CSc1nc(-c2ccc(Cl)cc2)nc2c1oc1ccccc12` the EC50 [3] was 6.56 µM (active), the IC50 (Leucine aminopeptidase) was 34.6 µM (active) and the IC50 (Aminopeptidase N) was 82.7 µM (active). The EC50 [4] was 1.93 µM (active) and the IC50 (Genome polyprotein) was 40.6 µM (active).
For `O=C1CCCC2=C1C(c1ccccc1)C1C(=O)c3ccccc3C1=N2` (configuration not stated), the CC50 [5] was > 50 µM (active) and the IC50 (cells [6]) was 39.8 µM (active).
For `COc1ccc(/C=C/C(=O)NCc2nc3ccccc3[nH]2)cc1OC`, the IC50 (cells [6]) was 30.6 µM (active).
In the case of `CCN1CCN(c2ccc(S(=O)(=O)N3CCCCC3)cc2NC(=O)c2ccc([N+](=O)[O-])o2)CC1`, the EC50 [7] is reported as 0.741 µM (active), the EC50 [8] is reported as 23.8 µM (active) and the CC50 [9] is reported as 19.1 µM (active). For the same compound, the CC50 [10] was 16.7 µM (active), the IC50 (cells [11]) was 12.8 µM (active) and the AC50 (INS1) was 3.27 µM (active).
In the case of `COC(=O)C1=C(C)N(Cc2ccccc2)C2=C3C(=O)N(c4ccccc4)C(=O)C3[C@@](O)(C(=O)OC)C(=O)N2C1c1ccccc1` (some centres not stated), the AC50 (Cytochrome P450 3A4) is reported as 3.98 µM (inconclusive) and 3.16 µM (inconclusive).
For `Cc1c(Cl)cccc1N=C(S)N1CCN(C(=O)C2CCCO2)CC1` (configuration not stated), the EC50 [1] was > 300 µM (not active) and the EC50 [2] was > 300 µM (not active).
For `Cc1nc2ccccc2c(=O)n1NC(=O)c1ccco1`, the IC50 (Aminopeptidase N) was 70.7 µM (active).

— ChEMBL document CHEMBL1201862, “PubChem BioAssay data set” (2004)
